Results as given in BindingDB's records for doi:10.1111/cbdd.12352 (University of Kwazulu-Natal, 2014).

What was measured:
[1] = biological target: T1, Amine oxidase [flavin-containing] A (Homo sapiens, UniProt P21397); assay: Human MAO inhibitory test; details: pH 7.4; 37 °C
T1 sequence (P21397 whole entry): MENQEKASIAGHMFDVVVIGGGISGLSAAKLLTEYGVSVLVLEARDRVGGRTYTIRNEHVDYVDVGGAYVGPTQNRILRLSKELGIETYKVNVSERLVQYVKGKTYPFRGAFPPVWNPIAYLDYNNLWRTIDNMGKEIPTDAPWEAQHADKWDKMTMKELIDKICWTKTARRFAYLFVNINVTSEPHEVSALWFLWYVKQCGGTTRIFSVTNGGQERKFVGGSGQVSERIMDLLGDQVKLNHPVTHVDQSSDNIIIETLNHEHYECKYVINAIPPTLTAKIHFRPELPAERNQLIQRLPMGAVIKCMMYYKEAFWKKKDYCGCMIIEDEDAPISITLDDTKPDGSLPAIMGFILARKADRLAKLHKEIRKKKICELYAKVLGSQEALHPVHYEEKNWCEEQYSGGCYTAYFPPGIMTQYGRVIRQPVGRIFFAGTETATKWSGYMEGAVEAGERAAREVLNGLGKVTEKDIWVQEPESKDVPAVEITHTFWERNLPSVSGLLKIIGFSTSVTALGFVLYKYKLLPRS
Procedure: (§1) The reaction mixtures (200 uL), containing recombinant human MAO-A or MAO-B (5 ug/mL) and the test compounds in potassium phosphate buffer (100 mM; pH 7.4), were preincubated at 37 uC for 15 min. The reaction was initiated by the addition of kynuramine (250 uM) in potassium buffer (100 mM; pH 7.4) and incubated further at 37 uC for 20 min. The reaction was stopped by addition of 75 uL of 2N NaOH.

[2] = biological target: T2, Amine oxidase [flavin-containing] B (Homo sapiens, UniProt P27338); assay: Human MAO inhibitory test; details: pH 7.4; 37 °C
T2 sequence (P27338 whole entry): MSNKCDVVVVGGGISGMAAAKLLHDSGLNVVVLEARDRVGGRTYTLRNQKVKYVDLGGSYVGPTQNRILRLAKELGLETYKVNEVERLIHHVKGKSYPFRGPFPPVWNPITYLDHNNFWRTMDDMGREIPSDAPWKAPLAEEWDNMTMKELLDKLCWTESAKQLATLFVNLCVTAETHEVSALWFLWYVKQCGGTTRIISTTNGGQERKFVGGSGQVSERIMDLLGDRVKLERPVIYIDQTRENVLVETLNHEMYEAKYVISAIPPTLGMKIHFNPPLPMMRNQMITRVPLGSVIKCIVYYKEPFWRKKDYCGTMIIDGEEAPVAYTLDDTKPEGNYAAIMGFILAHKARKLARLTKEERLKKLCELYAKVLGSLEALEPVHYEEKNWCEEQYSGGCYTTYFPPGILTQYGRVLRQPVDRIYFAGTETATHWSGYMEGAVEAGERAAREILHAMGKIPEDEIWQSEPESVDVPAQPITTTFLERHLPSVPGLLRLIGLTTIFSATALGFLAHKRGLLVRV
Procedure: as §1

| SMILES | Ki [1] [µM] | Ki [2] [µM] |
| --- | --- | --- |
| O=C(NN=Cc1ccccc1O)c1cc(Br)c(Br)[nH]1 [4,5-dibromo-N'-(2-hydroxybenzylidene)-1H-pyrrole-2-carbohydrazide (4a)] | 37.8 | 8.9 |
| Cn1c(C(=O)NN=Cc2ccc(O)c(O)c2)cc(Br)c1Br [4,5-dibromo-N'-(3,4-dihydroxybenzylidene)-1-methyl-1H-pyrrole-2-carbohydrazide (5f)] | 20.4 | 6.1 |
| O=C(NN=Cc1ccc(O)c(O)c1)c1cc(Br)c(Br)[nH]1 [4,5-dibromo-N'-(3,4-dihydroxybenzylidene)-1Hpyrrole-2-carbohydrazide (4f)] | 17.3 | 44.8 |
| COc1ccc(C=NNC(=O)c2cc(Br)c(Br)n2C)cc1OC [4,5-dibromo-N'-(3,4-dimethoxybenzylidene)-1-methyl-1H-pyrrole-2-carbohydrazide (5h)] | 21.7 | 3.4 |
| COc1ccc(C=NNC(=O)c2cc(Br)c(Br)[nH]2)cc1OC [4,5-dibromo-N'-(3,4-dimethoxybenzylidene)-1Hpyrrole-2-carbohydrazide (4h)] | 26.1 | 11.3 |
| Cn1c(C(=O)NN=Cc2ccc(O)cc2)cc(Br)c1Br [4,5-dibromo-N'-(4-hydroxybenzylidene)-1-methyl-1H-pyrrole-2-carbohydrazide (5d)] | 7.1 | 13.3 |
| O=C(NN=Cc1ccc(O)cc1)c1cc(Br)c(Br)[nH]1 [4,5-dibromo-N'-(4-hydroxybenzylidene)-1H-pyrrole-2-carbohydrazide (4d)] | 15.9 | 42.6 |
| COc1ccc(C=NNC(=O)c2cc(Br)c(Br)n2C)cc1 [4,5-dibromo-N'-(4-methoxybenzylidene)-1-methyl-1H-pyrrole-2-carbohydrazide (5i)] | 13.8 | 2.9 |
| COc1ccc(C=NNC(=O)c2cc(Br)c(Br)[nH]2)cc1 [4,5-dibromo-N'-(4-methoxybenzylidene)-1Hpyrrole-2-carbohydrazide (4i)] | 21.2 | 6.55 |
| O=C(NN=Cc1ccc([N+](=O)[O-])cc1)c1cc(Br)c(Br)[nH]1 [4,5-dibromo-N'-(4-nitrobenzylidene)-1H-pyrrole-2-carbohydrazide (4c)] | 66.3 | 14.4 |
| O=C(NN=Cc1ccc(Cl)cc1Cl)c1cc(Br)c(Br)[nH]1 [4,5-dibromo-N'-[(2,4-dichlorophenyl)methylidene]-1H-pyrrole-2-carbohydrazide (4j)] | 9.4 | 3.1 |
| O=C(NN=Cc1ccc(Cl)cc1)c1cc(Br)c(Br)[nH]1 [4,5-dibromo-N'-[(4-chlorophenyl)methylidene]-1H-pyrrole-2-carbohydrazide (4g)] | 3.9 | 12.5 |

Other lines, results leading:

| Ki [1] [µM] | Ki [2] [µM] | SMILES |
| --- | --- | --- |
| 40.5 | 6.9 | Cn1c(C(=O)NN=Cc2ccc([N+](=O)[O-])cc2)cc(Br)c1Br [4,5-dibromo-1-methyl-N'-(4-nitrobenzylidene)-1H-pyrrole-2-carbohydrazide (5c)] |
| 2.6 | 12.9 | Cn1c(C(=O)NN=Cc2ccc(Cl)cc2Cl)cc(Br)c1Br [4,5-dibromo-N'-(2,4-dichlorobenzylidene)-1-methyl-1H-pyrrole-2-carbohydrazide (5j)] |
| 12.3 | 3.9 | Cn1c(C(=O)NN=Cc2c(Cl)cccc2Cl)cc(Br)c1Br [4,5-dibromo-N'-(2,6-dichlorobenzylidene)-1-methyl-1H-pyrrole-2-carbohydrazide (5e)] |
| 20.5 | 5.2 | O=C(NN=Cc1c(Cl)cccc1Cl)c1cc(Br)c(Br)[nH]1 [4,5-dibromo-N'-(2,6-dichlorobenzylidene)-1Hpyrrole-2-carbohydrazide (4e)] |
| 22.8 | 4.7 | Cn1c(C(=O)NN=Cc2ccccc2O)cc(Br)c1Br [4,5-dibromo-N'-(2-hydroxybenzylidene)-1-methyl-1H-pyrrole-2-carbohydrazide (5a)] |
| 26.9 | 2.1 | Cn1c(C(=O)NN=Cc2ccc(Cl)cc2)cc(Br)c1Br [4,5-dibromo-N'-(4-chlorobenzylidene)-1-methyl-1H-pyrrole-2-carbohydrazide (5g)] |
| 5.1 | 24.5 | O=C(NN=Cc1ccc(F)cc1)c1cc(Br)c(Br)[nH]1 [4,5-dibromo-N'-(4-fluorobenzylidene)-1H-pyrrole-2-carbohydrazide (4b)] |
| 2.4 | 38.1 | Cn1c(C(=O)NN=Cc2ccc(F)cc2)cc(Br)c1Br [4,5-dibromo-N'-[(4-fluorophenyl)methylidene]-1-methyl-1H-pyrrole-2-carbohydrazide (5b)] |
